Measured values taken from patent publication US20080085528A1, “G[…] ASSAYS FOR MEASURING KINETIC AND […]” (Bristol-Myers Squibb Company, priority 2006, published 2008).

Key:
Type in all cases: biochemical
human hepatic GK [1] = molecular target: T1, human hepatic GK (Homo sapiens, UniProt P35557); assay: tandem assay (uncoupled G-6-P detection, heat stop)
T1 sequence (P35557 1-466 isoform P35557-2): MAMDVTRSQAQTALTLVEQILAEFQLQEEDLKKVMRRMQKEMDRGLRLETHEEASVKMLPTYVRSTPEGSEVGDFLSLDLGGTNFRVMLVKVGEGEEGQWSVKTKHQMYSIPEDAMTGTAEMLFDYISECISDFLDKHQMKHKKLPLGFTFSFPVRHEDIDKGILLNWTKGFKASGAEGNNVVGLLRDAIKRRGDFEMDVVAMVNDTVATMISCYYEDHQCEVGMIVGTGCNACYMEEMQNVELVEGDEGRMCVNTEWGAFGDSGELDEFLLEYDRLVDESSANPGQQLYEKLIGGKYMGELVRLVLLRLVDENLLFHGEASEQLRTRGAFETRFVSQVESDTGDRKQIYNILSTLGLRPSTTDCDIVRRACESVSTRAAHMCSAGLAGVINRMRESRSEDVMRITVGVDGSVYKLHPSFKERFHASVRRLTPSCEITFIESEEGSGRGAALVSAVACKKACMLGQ
Protocol: Purified human recombinant GK was used to measure the activation of GK activity by glucose and a GK activator (Compound “C”) in the tandem assay. A suitable vehicle (for instance 24% DMSO in pH 7.25 Tris buffer), with or without (control) a GK modulator of interest was incubated with GK (50 μl of a 24 nM stock solution) over a range of concentrations of glucose (for instance from 0.32 to 80 mM) for 30 minutes in a 96-well PCR plate (10 μl). The GK reaction was initiated by addition of Mg-ATP (20 μl). The solution used comprised 12 mM ATP and 16 mM MgCl2. The final assay conditions were 25 mM Tris, pH 7.25, 1 mM DTT and 3% DMSO, 15 nM GK, 3 mM ATP and 4 mM MgCl2. Glucose stock solution (IM) was diluted to generate a dilution series with final glucose concentrations of: 0.2, 0.4, 0.6, 0.8, 1, 1.5, 2, 3, 4, 5, 6, 8, 10, 12, 20 and 50 mM. The total reaction volume per well was about 80 μl.
The GK reaction proceeded for about 10 minutes, and was followed by heating the 96-well plate in a hot water bath (100° C.) for 30 seconds to stop the reaction. […] An aliquot of reaction mixture (typically 50 μl) was then transferred to a second 96 well plate suitable for taking absorbance measurements. […] The reagents and reaction mixture are mixed for 2 minutes, followed by measurement of the absorbance at 405 nm using a plate reader. […]

human full-length GK = molecular target: T2, human full-length GK (Homo sapiens, UniProt P35557); assay: tandem assay with EDTA quench; conditions: 12 mM glucose
T2 construct: human full-length GK (15 nM) was incubated with various concentrations of glucose
T2 sequence (P35557 1-466 isoform P35557-2): T1 sequence (P35557 1-466 isoform P35557-2)
Protocol: The protocol used is essentially as described above with some variation. Briefly, human full-length GK (15 nM) was incubated with various concentrations of glucose in the range from 0.33 to 50 mM in clear bottom 384 well microtiter plates. To initiate the GK reaction, Mg-ATP (3 mM final concentration) was added to the protein in buffer, under the final buffer conditions of 25 mM HEPES, pH 7.1, containing 1 mM DTT and 5% DMSO. The total reaction volume was 20 μl. The reaction was allowed to proceed for ten minutes and was then quenched with 5 μl EDTA (45 mM final).
The components of the secondary reaction, ThioNAD and G6PDH (final concentrations of 650 μM and 3.33 Units, respectively), were then added together in a volume of 25 μl, and a total volume of 50 μl. Absorbance was read and activation calculated as a percentage of background activity, i.e., GK in the presence of DMSO, with background G6P subtracted. Background G6P was determined by pre-quenching GK with EDTA prior to reaction initiation with ATP.
The tandem assay (EDTA quench) was used to assess the activity of GK in the presence of putative GK activator compounds. The above-described tandem assay protocol was followed using a range of activator compound concentrations from 0 to 100 μM.

human hepatic GK [2] = molecular target: T1, human hepatic GK; assay: filtration-based assay (direct G-6-P capture by ion-exchange resin); conditions: 12 mM glucose, FIG. 7
Protocol: Human full-length recombinant GK was used to measure the activation of GK. Human full-length GK (15 nM) was incubated with various concentrations of glucose in the range from 0.33 to 50 mM in the presence of tritiated glucose (3H-glucose [6-^3H], 0.33 μCi) in 96 well microtiter plates. To initiate the GK reaction, Mg-ATP (3 mM final) was added to the protein in buffer, under the final buffer conditions of 25 mM HEPES, pH 7.1, containing 1 mM DTT and 5% DMSO. The total reaction volume was 110 μl. The reaction was allowed to proceed for ten minutes (i.e., the linear portion of the reaction) and was then quenched with 100 mM formic acid (1:1). A 200 μl aliquot of the quenched reaction products was then transferred to wells in a 96-well MultiScreen-GV 96 filtration plate containing 100 μl/well of Bio-rad AG 1-X8 Resin, formate form. The resin was then washed with H2O (1 ml/well), and the GK reaction product (G-6-P) eluted with 1M ammonium formate, pH 5 (200 μl/well). A 50 μl aliquot of this eluate was added to an Optiplate white 96 well plate containing 200 μl of Microscint PS. The plate was sealed and shaken for 5 minutes, and read on a Topcount scintillation counter (Perkin Elmer). The raw counts were converted to product concentration by comparison of the raw counts in the sample wells to wells containing a standard curve having known concentrations of ^3H-glucose-6-phosphate. […]

CCOP(=O)(Cc1cnc(NC(=O)[C@H](CC2CCCC2)c2ccc(S(C)(=O)=O)cc2)cn1)OCC [Compound A, (R)-diethyl (5-(3-cyclopentyl-2-(4-(methylsulfonyl)phenyl)propanamido)pyrazin-2-yl)methylphosphonate]
Kcat in the presence of GK activator (human hepatic GK [1]; 20 uM activator, control 3% DMSO): 44 S^−1
KM compared to the controls (human hepatic GK [1]; in the presence of the activator, FIG. 8): substantially lower
AC50 (human full-length GK; FIG. 10): ~0.904 µM
Emax (human full-length GK; FIG. 10, read-out: maximal activation of background GK activity): 208%
AC50 (human hepatic GK [2]): 7.1 µM
Emax (human hepatic GK [2]; read-out: maximal activation number (above background)): 228%
